# In patent US11491161B2, “Methods and compositions for treatment of pulmonary hypertension and other lung disorders” (Respira Therapeutics, Inc., priority 2016, dated 2022):
# Counter-ions that a name gives are not always drawn.
# Key:
# [1] = octanol-water partition coefficient; cited from earlier work
# [2] = tested on: plasma proteins; conditions: cited from earlier work
# [3] = particle size distribution of micronized drug substance by laser diffraction; assay type: physicochemical; conditions: hydrochloride trihydrate
# Description: The coarse drug substance as received was forced into the milling chamber by a compressed air stream, through a Venturi tube with a higher pressure (P_vent) and metered into the mill at the desired rate (F-feed). Nitrogen was used as grinding gas and adjusted to the desired pressure (P_grind) to mill the drug particles. The micronized material was characterized for process yield gravimetrically, particle size distribution (PSD) by laser diffraction (Malvern Masersizer) and moisture content by Karl Fischer (KF) analysis. A finer micronized drug substance PSD as evidenced with smaller volume weighted median diameter (Dv50=1.8 μm) and linear interpolated size of the 90th percentile (Dv90=4.5 μm) was obtained using higher Venturi (P_Vent=7.5 bar) and grinding pressures (P_Grind=6 bar) as compared with a batch with a slightly coarser PSD of […] when using the jet mill operated at lower pressures (ca. P_Vent=5.5 bar and P_Grind=4.5 bar) (Table 1).
# [4] = inhaled, following pulmonary administration; peak at first time-point tested; cited from earlier work
# [5] = tested on: human patients with PAH; conditions: 5 mg orally twice per day (b.i.d.); cited from earlier work
# [6] = biological target: PDE5 enzyme (Homo sapiens, UniProt O76074); conditions: cited from earlier work
# [7] = in vivo; cited from earlier work
# [8] = in vivo; cited from earlier work; remark: listed apart in the source
SMILES,log P [1],protein binding in the systemic circuit [2],half-life at the catalytic site on the PDE enzyme [6],other results
"COc1ccc(CN=c2[nH]c(N3CCC[C@H]3CO)ncc2C(=O)NCc2ncccn2)cc1Cl [avanafil, (S)-4-[(3-chloro-4-methoxybenzyl)amino]-2-[2-(hydroxymethyl)-1-pyrrolidinyl]-N-(2-pyrimidinylmethyl)-5-pyrimidinecarboxamide]",2.6,99%,–,–
"CCCc1nc(C)c2c(=O)[nH]c(-c3cc(S(=O)(=O)N4CCN(CC)CC4)ccc3OCC)nn12 [Batch 1, vardenafil hydrochloride trihydrate]",–,–,–,PSD by Laser diffraction Dv10 [3]: 0.5 μm; PSD by Laser diffraction Dv50 [3]: 1.8 μm; PSD by Laser diffraction Dv90 [3]: 4.5 μm; PSD by Laser diffraction Span [3]: 2.2
COc1ccccc1Oc1c(NS(=O)(=O)c2ccc(C(C)(C)C)cc2)nc(-c2ncccn2)nc1OCCO [bosentan],3.7,98%,–,–
"CCCCC[C@H](O)/C=C/[C@@H]1[C@H]2C/C(=C/CCCC(=O)O)O[C@H]2C[C@H]1O [epoprostenol, (5Z,9α,11α,13E,15S)-6,9-epoxy-11,15-dihydroxyprosta-5,13-dien-1-oic acid]",2.9,–,–,–
"CCCc1nc(C)c2c(=O)nc(-c3cc(S(=O)(=O)N4CCN(CC)CC4)ccc3OCC)[nH]n12 [vardenafil, 1-[[3-(1,4-dihydro-5-methyl-4-oxo-7-propylimidazo[5,1-f][1,2,4]triazin-2-yl)-4-ethoxyphenyl]sulfonyl]-4-ethyl-piperazine]",–,93-95%,about 2 hr,tmax [4]: ≤ 2 min; safety and efficacy in PAH [5]: safe and effective
"CCCc1nn(C)c2c(=O)[nH]c(-c3cc(S(=O)(=O)N4CCN(C)CC4)ccc3OCC)nc12 [sildenafil, 1-[[3-(6,7-dihydro-1-methyl-7-oxo-3-propyl-1H-pyrazolo[4,3-d]pyrimidin-5-yl)-4-ethoxyphenyl]sulfonyl]-4-methylpiperazine]",–,96%,3 min,–
"CN1CC(=O)N2[C@H](c3ccc4c(c3)OCO4)c3[nH]c4ccccc4c3C[C@@H]2C1=O [tadalafil, (6R,12aR)-2,3,6,7,12,12a-hexahydro-2-methyl-6-(1,3-benzodioxol-5-yl)-pyrazino[1′,2′:1,6]pyrido[3,4-b]indole-1,4-dione]",–,94%,7 min,–
"CCCCC[C@H](O)CC[C@@H]1[C@H]2Cc3cccc(OCC(=O)O)c3C[C@H]2C[C@H]1O [treprostinil, (1R,2R,3aS,9aS)-[[2,3,3a,4,9,9a-hexahydro-2-hydroxy-1-[(3S)-3-hydroxyoctyl]-1H-benz[f]inden-5-yl]oxy]acetic acid]",4.1,–,–,oral bioavailability [7]: 18%
"CCCc1nc(C)c2c(=O)[nH]c(-c3cc(S(=O)(=O)N4CCN(CC)CC4)ccc3OCC)nn12 [Batch 2, vardenafil hydrochloride trihydrate]",–,–,–,PSD by Laser diffraction Dv10 [3]: 0.7 μm; PSD by Laser diffraction Dv50 [3]: 2.9 μm; PSD by Laser diffraction Dv90 [3]: 5.5 μm; PSD by Laser diffraction Span [3]: 1.7
"CC#CCC(C)[C@H](O)/C=C/[C@@H]1[C@H]2C/C(=C/CCCC(=O)O)C[C@H]2C[C@H]1O (stereo partly drawn) [iloprost, (E)-(3aS, 4R, 5R, 6aS)-hexahydro-5-hydroxy-4-[(E)-(3S,4RS)-3-hydroxy-4-methyl-1-octen-6-ynyl]-Δ^2(1H),Δ-pentalenevaleric acid]",4.8,–,–,duration of action [8]: about 30 min
